Experimental data: patent US6734139B1, “N-aryl-uracile-based herbicides” (priority 1999, dated 2004)
Several values for one entry are separate records, joined by “and”; a condition that tells them apart may be missing. Equal entries are not always repeated.

What was measured:
Type in all cases: in vivo
weeds = assay: Pre-emergence test (herbicidal action against weeds, Colby)
Description: The expected action for a given combination of two herbicides can be calculated as follows (cf. COLBY, S. R.: “Calculating synergistic and antagonistic responses of herbicide combinations”, Weeds 15, Pages 20-22, 1967):
If the actual damage exceeds the calculated value, the combination has a superadditive effect, that is to say a synergistic effect.
The theoretically expected activity for a given combination of three herbicides can likewise be found in the literature mentioned above.
Solvent: 2 to 3 parts by weight of acetone or N,N-dimethyl-formamide
Emulsifier: 1 part by weight of alkylaryl polyglycol ether
To produce a suitable preparation of active compound, 1 part by weight of active compound is mixed with the stated amount of solvent, the stated amount of emulsifier is added and the concentrate is diluted with water to the desired concentration. Formulated products are dissolved in water and then diluted with water to the desired concentration.
The solutions of the other mixing components (active compounds or safeners) are prepared analogously. The separately prepared solutions of the various mixing components are then combined and, if appropriate, additional substances (formulation auxiliaries, additives, etc.) are added and, if appropriate, water is added to prepare the desired dilution.
Seeds of the test plants are sown in standard soil. After 24 hours, the soil is sprayed with the preparation of active compound such that the particular amount of active compound desired in each case is applied per unit area. The concentration of active compound in the spray liquor is chosen such that the particular amount of active compound desired in each case is applied in 500 litres of water per hectare. The containers with the test plants are kept in a greenhouse at controlled temperature and controlled illumination until evaluation.
After three weeks, the degree of damage to the plants is rated in % damage in comparison to the development of the untreated control. The figures denote
0%=no effect/no damage (like untreated control)

Datura [1] = assay: Post-emergence test (herbicidal action, Colby): Datura
Abutilon [2] = assay: Post-emergence test (herbicidal action, Colby): Abutilon; settings: 4 g of a.i./ha
Chenopodium [3] = assay: Post-emergence test (herbicidal action, Colby): Chenopodium; settings: 4 g of a.i./ha
Matricaria [4] = assay: Post-emergence test (herbicidal action, Colby): Matricaria; settings: 4 g of a.i./ha
Polygonum [5] = assay: Post-emergence test (herbicidal action, Colby): Polygonum; settings: 8 g of a.i./ha
Alopecurus = assay: Pre-emergence test (herbicidal action, Colby): Alopecurus
Cyperus = assay: Pre-emergence test (herbicidal action, Colby): Cyperus
Digitaria = assay: Pre-emergence test (herbicidal action, Colby): Digitaria
Echinochloa = assay: Pre-emergence test (herbicidal action, Colby): Echinochloa
Setaria = assay: Pre-emergence test (herbicidal action, Colby): Setaria
Abutilon [6] = assay: Pre-emergence test (herbicidal action, Colby): Abutilon
Matricaria [7] = assay: Pre-emergence test (herbicidal action, Colby): Matricaria
Polygonum [8] = assay: Pre-emergence test (herbicidal action, Colby): Polygonum
Stellaria = assay: Pre-emergence test (herbicidal action, Colby): Stellaria; settings: 4 g of a.i./ha
Ipomoea = assay: Pre-emergence test (herbicidal action, Colby): Ipomoea
Viola = assay: Pre-emergence test (herbicidal action, Colby): Viola; settings: 8 g of a.i./ha
Datura [9] = assay: Pre-emergence test (herbicidal action, Colby): Datura; settings: 4 g of a.i./ha
Chenopodium [10] = assay: Pre-emergence test (herbicidal action, Colby): Chenopodium; settings: 4 g of a.i./ha
Eriochloa = assay: Pre-emergence test (herbicidal action, Colby): Eriochloa
Cassia = assay: Pre-emergence test (herbicidal action, Colby): Cassia; settings: 4 g of a.i./ha
Bromus = assay: Pre-emergence test (herbicidal action, Colby): Bromus; settings: 4 g of a.i./ha
Galium = assay: Pre-emergence test (herbicidal action, Colby): Galium; settings: 8 g of a.i./ha
Lolium = assay: Pre-emergence test (herbicidal action, Colby): Lolium; settings: 8 g of a.i./ha

CCS(=O)(=O)N(C(=O)C(C)(C)C)c1cc(-n2c(=O)cc(C(F)(F)F)n(C)c2=O)c(F)cc1C#N [I-3, N-[2-cyano-4-fluoro-5-(3-methyl-2,6-dioxo-4-trifluoromethyl-3,6-dihydro-1(2H)-pyrimidinyl)-phenyl]-N-(2,2-dimethyl-propanoyl)-1-ethanesulphonamide]
Cyperus (pre-emergence test) (weeds; Table A25, 8 g of a.i./ha): 50
Lolium (pre-emergence test) (weeds; Table A25, 8 g of a.i./ha): 60
Avena (pre-emergence test) (weeds; Table A26, 4 g of a.i./ha): 40
Digitaria (pre-emergence test) (weeds; Table A26, 4 g of a.i./ha): 30
Echinochloa (pre-emergence test) (weeds; Table A26, 4 g of a.i./ha): 0
Lolium (pre-emergence test) (weeds; Table A26, 4 g of a.i./ha): 30
Matricaria (pre-emergence test) (weeds; Table A26, 4 g of a.i./ha): 30
Setaria (pre-emergence test) (weeds; Table A26, 4 g of a.i./ha): 0
Cassia (pre-emergence test) (weeds; Table A26, 8 g of a.i./ha): 30
Echinochloa (pre-emergence test) (weeds; Table A26, 8 g of a.i./ha): 30
Lolium (pre-emergence test) (weeds; Table A26, 8 g of a.i./ha): 30
Matricaria (pre-emergence test) (weeds; Table A26, 8 g of a.i./ha): 70
Setaria (pre-emergence test) (weeds; Table A26, 8 g of a.i./ha): 30
Abutilon (pre-emergence test) (weeds; Table A27, 8 g of a.i./ha): 95
Cassia (pre-emergence test) (weeds; Table A27, 8 g of a.i./ha): 30
Polygonum (pre-emergence test) (weeds; Table A27, 8 g of a.i./ha): 20
Datura (Datura [1]; 4 g of a.i./ha): 30%
Datura (Datura [1]; 8 g of a.i./ha): 60%
Abutilon (Abutilon [2]): 0%
Chenopodium (Chenopodium [3]): 0%
Matricaria (Matricaria [4]): 70%
Polygonum (Polygonum [5]): 60%
Alopecurus (Alopecurus; 4 g of a.i./ha): 0%
Alopecurus (Alopecurus; 8 g of a.i./ha): 0%
Cyperus (Cyperus; 4 g of a.i./ha): 0%
Cyperus (Cyperus; 8 g of a.i./ha): 30%
Digitaria (Digitaria; 4 g of a.i./ha): 0%
Digitaria (Digitaria; 8 g of a.i./ha): 20%
Echinochloa (Echinochloa; 4 g of a.i./ha): 0%
Echinochloa (Echinochloa; 8 g of a.i./ha): 0%
Setaria (Setaria; 4 g of a.i./ha): 0%
Setaria (Setaria; 8 g of a.i./ha): 0%
pest or weed control at 4 g/ha (Abutilon [6]; 4 g of a.i./ha): 20%
pest or weed control at 8 g/ha (Abutilon [6]; 8 g of a.i./ha): 50%
Matricaria (Matricaria [7]; 4 g of a.i./ha): 50%
Matricaria (Matricaria [7]; 8 g of a.i./ha): 90%
Polygonum (Polygonum [8]; 4 g of a.i./ha): 0%
Polygonum (Polygonum [8]; 8 g of a.i./ha): 90%
Stellaria (Stellaria): 80%
Ipomoea (Ipomoea; 4 g of a.i./ha): 30% and 50%
Ipomoea (Ipomoea; 8 g of a.i./ha): 30%
Viola (Viola): 90%
Datura (Datura [9]): 30%
Chenopodium (Chenopodium [10]): 80%
Eriochloa (Eriochloa; 4 g of a.i./ha): 30%
Eriochloa (Eriochloa; 8 g of a.i./ha): 50%
Cassia (Cassia): 40%
Bromus (Bromus): 0%
Galium (Galium): 30%
Lolium (Lolium): 20%
